# Results reported in ChEMBL document CHEMBL1255475, “Mutant prevention concentrations of four carbapenems against gram-negative rods” (2010).
# How the values were obtained:
# Pseudomonas aeruginosa [1] = assay: Ratio of mutant prevention concentration to minimum Inhibitory concentration for Pseudomonas aeruginosa P373; type: functional
# Pseudomonas aeruginosa [2] = assay: Ratio of mutant prevention concentration to minimum Inhibitory concentration for Pseudomonas aeruginosa P335; type: functional
# Pseudomonas aeruginosa [3] = assay: Ratio of mutant prevention concentration to minimum Inhibitory concentration for Pseudomonas aeruginosa P334; type: functional
# Pseudomonas aeruginosa [4] = assay: Ratio of mutant prevention concentration to minimum Inhibitory concentration for Pseudomonas aeruginosa P340; type: functional
# Pseudomonas aeruginosa [5] = assay: Ratio of mutant prevention concentration to minimum Inhibitory concentration for Pseudomonas aeruginosa P349; type: functional
# Pseudomonas aeruginosa [6] = assay: Ratio of mutant prevention concentration to minimum Inhibitory concentration for Pseudomonas aeruginosa P363; type: functional
# Pseudomonas aeruginosa [7] = assay: Ratio of mutant prevention concentration to minimum Inhibitory concentration for Pseudomonas aeruginosa P326; type: functional
# Acinetobacter baumannii [8] = assay: Ratio of mutant prevention concentration to minimum Inhibitory concentration for Acinetobacter baumannii A851; type: functional
# Acinetobacter baumannii [9] = assay: Ratio of mutant prevention concentration to minimum Inhibitory concentration for Acinetobacter baumannii A867; type: functional
# Acinetobacter baumannii [10] = assay: Ratio of mutant prevention concentration to minimum Inhibitory concentration for Acinetobacter baumannii A912; type: functional
# Acinetobacter baumannii [11] = assay: Ratio of mutant prevention concentration to minimum Inhibitory concentration for Acinetobacter baumannii A849; type: functional
# Acinetobacter baumannii [12] = assay: Ratio of mutant prevention concentration to minimum Inhibitory concentration for Acinetobacter baumannii A928; type: functional
# Acinetobacter baumannii [13] = assay: Ratio of mutant prevention concentration to minimum Inhibitory concentration for Acinetobacter baumannii A890; type: functional
# Acinetobacter baumannii [14] = assay: Ratio of mutant prevention concentration to minimum Inhibitory concentration for Acinetobacter baumannii A894; type: functional
# Acinetobacter baumannii [15] = assay: Ratio of mutant prevention concentration to minimum Inhibitory concentration for Acinetobacter baumannii A903; type: functional
# Pseudomonas aeruginosa [16] = assay: Ratio of mutant prevention concentration to minimum Inhibitory concentration for Pseudomonas aeruginosa P332; type: functional
# Acinetobacter baumannii [17] = assay: Antibacterial activity against Acinetobacter baumannii A928 after 24 hrs by agar dilution method; type: functional; details: A928, 24 h
# Acinetobacter baumannii [18] = assay: Antibacterial activity against Acinetobacter baumannii A898 after 24 hrs by agar dilution method; type: functional; details: A898, 24 h
# Acinetobacter baumannii [19] = assay: Antibacterial activity against Acinetobacter baumannii A897 after 24 hrs by agar dilution method; type: functional; details: A897, 24 h
# Acinetobacter baumannii [20] = assay: Antibacterial activity against Acinetobacter baumannii A929 after 24 hrs by agar dilution method; type: functional; details: A929, 24 h
# Acinetobacter baumannii [21] = assay: Antibacterial activity against Acinetobacter baumannii A885 after 24 hrs by agar dilution method; type: functional; details: A885, 24 h
# Escherichia coli [22] = assay: Antibacterial activity against beta-lactamase-negative Escherichia coli E344 after 24 hrs by agar dilution method; details: E344, 24 h
# Escherichia coli [23] = assay: Antibacterial activity against beta-lactamase-negative Escherichia coli E345 after 24 hrs by agar dilution method; details: E345, 24 h
# Escherichia coli [24] = assay: Antibacterial activity against beta-lactamase-negative Escherichia coli E348 after 24 hrs by agar dilution method; details: E348, 24 h
# Escherichia coli [25] = assay: Antibacterial activity against beta-lactamase-negative Escherichia coli E350 after 24 hrs by agar dilution method; details: E350, 24 h
# Escherichia coli [26] = assay: Antibacterial activity against beta-lactamase-negative Escherichia coli E408 after 24 hrs by agar dilution method; details: E408, 24 h
# Escherichia coli [27] = assay: Antibacterial activity against beta-lactamase-negative Escherichia coli E425 after 24 hrs by agar dilution method; details: E425, 24 h
# Escherichia coli [28] = assay: Antibacterial activity against beta-lactamase-positive ESBL-positive Escherichia coli E452 after 24 hrs by agar dilution method; details: E452, 24 h
# Escherichia coli [29] = assay: Antibacterial activity against beta-lactamase-positive ESBL-positive Escherichia coli E459 after 24 hrs by agar dilution method; details: E459, 24 h
# Escherichia coli [30] = assay: Antibacterial activity against beta-lactamase-positive ESBL-positive Escherichia coli E460 after 24 hrs by agar dilution method; details: E460, 24 h
# Escherichia coli [31] = assay: Antibacterial activity against beta-lactamase-positive ESBL-positive Escherichia coli E465 after 24 hrs by agar dilution method; details: E465, 24 h
# Klebsiella pneumoniae [32] = assay: Antibacterial activity against beta-lactamase-negative Klebsiella pneumoniae E358 after 24 hrs by agar dilution method; type: functional; details: E358, 24 h
# Klebsiella pneumoniae [33] = assay: Antibacterial activity against beta-lactamase-negative Klebsiella pneumoniae E359 after 24 hrs by agar dilution method; type: functional; details: E359, 24 h
# Klebsiella pneumoniae [34] = assay: Antibacterial activity against beta-lactamase-negative Klebsiella pneumoniae E362 after 24 hrs by agar dilution method; type: functional; details: E362, 24 h
# Klebsiella pneumoniae [35] = assay: Antibacterial activity against beta-lactamase-negative Klebsiella pneumoniae E418 after 24 hrs by agar dilution method; type: functional; details: E418, 24 h
# Klebsiella pneumoniae [36] = assay: Antibacterial activity against beta-lactamase-positive ESBL-negative Klebsiella pneumoniae E472 after 24 hrs by agar dilution method; type: functional; details: E472, 24 h
# Klebsiella pneumoniae [37] = assay: Antibacterial activity against beta-lactamase-positive ESBL-negative Klebsiella pneumoniae E479 after 24 hrs by agar dilution method; type: functional; details: E479, 24 h
# Klebsiella pneumoniae [38] = assay: Antibacterial activity against beta-lactamase-positive ESBL-positive Klebsiella pneumoniae E453 after 24 hrs by agar dilution method; type: functional; details: E453, 24 h
# Klebsiella pneumoniae [39] = assay: Antibacterial activity against beta-lactamase-positive ESBL-negative Klebsiella pneumoniae E507 after 24 hrs by agar dilution method; type: functional; details: E507, 24 h
# Pseudomonas aeruginosa [40] = assay: Antibacterial activity against Pseudomonas aeruginosa P327 after 24 hrs by agar dilution method; details: P327, 24 h
# Pseudomonas aeruginosa [41] = assay: Antibacterial activity against Pseudomonas aeruginosa P334 after 24 hrs by agar dilution method; details: P334, 24 h
# Pseudomonas aeruginosa [42] = assay: Antibacterial activity against Pseudomonas aeruginosa P337 after 24 hrs by agar dilution method; details: P337, 24 h
# Pseudomonas aeruginosa [43] = assay: Antibacterial activity against Pseudomonas aeruginosa P338 after 24 hrs by agar dilution method; details: P338, 24 h
# Pseudomonas aeruginosa [44] = assay: Antibacterial activity against Pseudomonas aeruginosa P365 after 24 hrs by agar dilution method; details: P365, 24 h
# Pseudomonas aeruginosa [45] = assay: Antibacterial activity against Pseudomonas aeruginosa P363 after 24 hrs by agar dilution method; details: P363, 24 h
# Pseudomonas aeruginosa [46] = assay: Antibacterial activity against Pseudomonas aeruginosa P370 after 24 hrs by agar dilution method; details: P370, 24 h
# Pseudomonas aeruginosa [47] = assay: Antibacterial activity against Pseudomonas aeruginosa P326 after 24 hrs by agar dilution method; details: P326, 24 h
# Acinetobacter baumannii [48] = assay: Antibacterial activity against Acinetobacter baumannii A864 after 24 hrs by agar dilution method; type: functional; details: A864, 24 h
# Acinetobacter baumannii [49] = assay: Antibacterial activity against Acinetobacter baumannii A851 after 24 hrs by agar dilution method; type: functional; details: A851, 24 h
# Acinetobacter baumannii [50] = assay: Antibacterial activity against Acinetobacter baumannii A911 after 24 hrs by agar dilution method; type: functional; details: A911, 24 h
# Acinetobacter baumannii [51] = assay: Antibacterial activity against Acinetobacter baumannii A912 after 24 hrs by agar dilution method; type: functional; details: A912, 24 h
# Acinetobacter baumannii [52] = assay: Antibacterial activity against Acinetobacter baumannii A849 after 24 hrs by agar dilution method; type: functional; details: A849, 24 h
# Acinetobacter baumannii [53] = assay: Antibacterial activity against Acinetobacter baumannii A910 after 24 hrs by agar dilution method; type: functional; details: A910, 24 h
# Acinetobacter baumannii [54] = assay: Antibacterial activity against Acinetobacter baumannii A896 after 24 hrs by agar dilution method; type: functional; details: A896, 24 h
smiles,measurement,setting,value
C[C@@H](O)[C@H]1C(=O)N2C(C(=O)O)=C(S[C@@H]3CN[C@H](CNS(N)(=O)=O)C3)[C@H](C)[C@H]12 [DORIPENEM],Ratio,Pseudomonas aeruginosa [1],>8
same,Ratio,Pseudomonas aeruginosa [2],8
same,Ratio,Pseudomonas aeruginosa [3],>16
same,Ratio,Pseudomonas aeruginosa [4],8
same,Ratio,Pseudomonas aeruginosa [5],16
same,Ratio,Pseudomonas aeruginosa [6],16
same,Ratio,Pseudomonas aeruginosa [7],4
same,Ratio,Acinetobacter baumannii [8],4
same,Ratio,Acinetobacter baumannii [9],16
same,Ratio,Acinetobacter baumannii [10],2
same,Ratio,Acinetobacter baumannii [11],4
same,Ratio,Acinetobacter baumannii [12],2
same,Ratio,Acinetobacter baumannii [13],4
same,Ratio,Acinetobacter baumannii [14],4
same,Ratio,Acinetobacter baumannii [15],4
same,Ratio,Pseudomonas aeruginosa [16],>16
C[C@@H](O)[C@H]1C(=O)N2C(C(=O)O)=C(SCCNC=N)C[C@H]12 [IMIPENEM ANHYDROUS],MIC,Acinetobacter baumannii [17],0.5 µg/mL
same,MIC,Acinetobacter baumannii [18],1 µg/mL
same,MIC,Acinetobacter baumannii [19],0.5 µg/mL
same,MIC,Acinetobacter baumannii [20],0.5 µg/mL
same,MIC,Acinetobacter baumannii [21],2 µg/mL
same,MIC,Escherichia coli [22],0.125 µg/mL
same,MIC,Escherichia coli [23],0.25 µg/mL
same,MIC,Escherichia coli [24],0.125 µg/mL
same,MIC,Escherichia coli [25],0.5 µg/mL
same,MIC,Escherichia coli [26],0.125 µg/mL
same,MIC,Escherichia coli [27],0.25 µg/mL
same,MIC,Escherichia coli [28],0.125 µg/mL
same,MIC,Escherichia coli [29],0.25 µg/mL
same,MIC,Escherichia coli [30],0.25 µg/mL
same,MIC,Escherichia coli [31],0.25 µg/mL
same,MIC,Klebsiella pneumoniae [32],0.25 µg/mL
same,MIC,Klebsiella pneumoniae [33],0.5 µg/mL
same,MIC,Klebsiella pneumoniae [34],0.5 µg/mL
same,MIC,Klebsiella pneumoniae [35],2 µg/mL
same,MIC,Klebsiella pneumoniae [36],8 µg/mL
same,MIC,Klebsiella pneumoniae [37],8 µg/mL
same,MIC,Klebsiella pneumoniae [38],0.125 µg/mL
same,MIC,Klebsiella pneumoniae [39],2 µg/mL
same,MIC,Pseudomonas aeruginosa [40],2 µg/mL
same,MIC,Pseudomonas aeruginosa [41],1 µg/mL
same,MIC,Pseudomonas aeruginosa [42],2 µg/mL
same,MIC,Pseudomonas aeruginosa [43],2 µg/mL
same,MIC,Pseudomonas aeruginosa [44],2 µg/mL
same,MIC,Pseudomonas aeruginosa [45],2 µg/mL
same,MIC,Pseudomonas aeruginosa [46],1 µg/mL
same,MIC,Pseudomonas aeruginosa [47],16 µg/mL
same,MIC,Acinetobacter baumannii [48],8 µg/mL
same,MIC,Acinetobacter baumannii [49],2 µg/mL
same,MIC,Acinetobacter baumannii [50],2 µg/mL
same,MIC,Acinetobacter baumannii [51],2 µg/mL
same,MIC,Acinetobacter baumannii [52],4 µg/mL
same,MIC,Acinetobacter baumannii [53],0.5 µg/mL
same,MIC,Acinetobacter baumannii [54],0.25 µg/mL
